In ChEMBL document CHEMBL5137069, “Discovery of Potent and Orally Bioavailable Pyridine N-Oxide-Based Factor XIa Inhibitors through Exploiting Nonclassical Interactions” (J Med Chem, 2022):
Values after ≈ are worked out from the molar mass of the structure shown.

Legend:
[1] = Stability in human liver microsomes assessed as half-life; type: ADME, Microsome
[2] = Stability in rat liver microsomes assessed as half-life; type: ADME, Microsome
[3] = Oral Bioavailability in Sprague-Dawley rat at 10 mg/kg; type: ADME, organism-based; details: in vivo
[4] = Half-life in Sprague-Dawley rat at 10 mg/kg, po and 2 mg/kg, iv; type: ADME, organism-based; details: in vivo
[5] = Hal-life in Beagle dog at 5 mg/kg, po and 1 mg/kg, iv; type: ADME, organism-based, Canis lupus familiaris; details: in vivo
[6] = Half-life in Cynomolgus monkey at 5 mg/kg, po and 1 mg/kg, iv; type: ADME, organism-based, Macaca fascicularis; details: in vivo
[7] = Volume of distribution at steady state in Sprague-Dawley rat at 10 mg/kg, po and 2 mg/kg, iv; type: ADME, organism-based; details: in vivo
[8] = Volume of distribution at steady state in Beagle dog at 5 mg/kg, po and 1 mg/kg, iv; type: ADME, organism-based, Canis lupus familiaris; details: in vivo
[9] = Volume of distribution at steady state in Cynomolgus monkey at 5 mg/kg, po and 1 mg/kg, iv; type: ADME, organism-based, Macaca fascicularis; details: in vivo
[10] = Oral bioavailability in Beagle dog at 5 mg/kg; type: ADME, organism-based, Canis lupus familiaris; details: in vivo
[11] = Oral bioavailability in Cynomolgus monkey at 5 mg/kg; type: ADME, organism-based, Macaca fascicularis; details: in vivo
[12] = AUC in Sprague-Dawley rat at 2 mg/kg, iv; type: ADME, organism-based; parameters: dose 2 mg/kg, route iv; details: in vivo
[13] = AUC in Beagle dog at 1 mg/kg, iv; type: ADME, organism-based, Canis lupus familiaris; parameters: dose 1 mg/kg, route iv; details: in vivo
[14] = AUC in Cynomolgus monkey at 1 mg/kg, iv; type: ADME, organism-based, Macaca fascicularis; parameters: dose 1 mg/kg, route iv; details: in vivo
[15] = AUC in Sprague-Dawley rat at 10 mg/kg, po; type: ADME, organism-based; parameters: dose 10 mg/kg, route po; details: in vivo
[16] = AUC in Beagle dog at 5 mg/kg, po; type: ADME, organism-based, Canis lupus familiaris; parameters: dose 5 mg/kg, route po; details: in vivo
[17] = AUC in Cynomolgus monkey at 5 mg/kg, po; type: ADME, organism-based, Macaca fascicularis; parameters: dose 5 mg/kg, route po; details: in vivo
[18] = Clearance in Sprague-Dawley rat assessed as liver blood flow at 10 mg/kg, po and 2 mg/kg, iv; type: ADME, organism-based; details: in vivo
[19] = Clearance in Beagle dog assessed as liver blood flow at 5 mg/kg, po and 1 mg/kg, iv; type: ADME, organism-based, Canis lupus familiaris; details: in vivo
[20] = Clearance in Cynomolgus monkey assessed as liver blood flow at 5 mg/kg, po and 1 mg/kg, iv; type: ADME, organism-based, Macaca fascicularis; details: in vivo
[21] = Equilibrium solubility of compound at pH 1.2 by HPLC analysis; type: physicochemical; details: buffer
[22] = Equilibrium solubility of compound at pH 6.8 by HPLC analysis; type: physicochemical; details: buffer
[23] = Drug concentration in plasma of anesthetized New Zealand White rabbit model of AV shunt-induced thrombosis at […], administered as iv bolus dose and subsequently followed by 0.8 mg/kg/hr as iv infusion from 20 min prior to 40 min after establishment of AV shunt by LC-MS/MS analysis; type: ADME, organism-based, Oryctolagus cuniculus; details: time 60 min
[24] = Drug concentration in plasma of anesthetized New Zealand White rabbit model of AV shunt-induced thrombosis at 8.5 mg/kg, administered as iv bolus dose and subsequently followed by 10 mg/kg/hr as iv infusion from 20 min prior to 40 min after establishment of AV shunt by LC-MS/MS analysis; type: ADME, organism-based, Oryctolagus cuniculus; details: time 60 min
[25] = Oral bioavailability in Sprague-Dawley rat at 10 mg/kg administered as 20% HPbCD formulation; type: ADME, organism-based; details: in vivo
[26] = Oral bioavailability in Sprague-Dawley rat at 10 mg/kg administered as PEG-400/water/EtOH (7:2:1) formulation; type: ADME, organism-based; details: in vivo

`Cc1nc(N)ccc1-c1cnn(C(CC2CC2)c2ccc(-c3c(-n4cnnn4)ccc(Cl)c3F)c[n+]2[O-])c1` (racemic) gave a half-life [1] of 1.67 h and a half-life [2] of 1.8 h.
For `Cn1nncc1-c1cnn([C@H](Cn2cc(F)cn2)c2ccc(-c3c(-n4cc(Cl)nn4)ccc(Cl)c3F)c[n+]2[O-])c1`, the half-life [1] was > 3.08 h and the half-life [2] was 1.47 h.
For `Cn1nncc1-c1cnn([C@H](Cc2ccc(F)cc2)c2ccc(-c3c(-n4cnnn4)ccc(Cl)c3F)c[n+]2[O-])c1`, the half-life [1] was > 3.08 h and the half-life [2] was 0.8 h.
`[O-][n+]1cc(-c2c(-n3cnnn3)ccc(Cl)c2F)ccc1C(CC1CC1)n1cc(-c2cncs2)cn1` (racemic) gave a half-life [1] of 0.05 h and a half-life [2] of 0.117 h.
For `Cn1nncc1-c1cnn([C@H](CCOC(F)F)c2ccc(-c3c(-n4cnnn4)ccc(Cl)c3F)c[n+]2[O-])c1`, the half-life [1] was > 3.08 h and the half-life [2] was > 3.08 h.
In the case of `COCC[C@H](c1ccc(-c2c(-n3cnnn3)ccc(Cl)c2F)c[n+]1[O-])n1cc(-c2cnnn2C)cn1`, the half-life [1] was 2.83 h and the half-life [2] was 0.833 h.
For `Cn1nncc1-c1cnn([C@H](CCOC(F)F)c2ccc(-c3c(-n4cc(Cl)nn4)ccc(Cl)c3F)c[n+]2[O-])c1`, the bioavailability [3] was 36.4%, the half-life [1] was > 3.08 h and the half-life [2] was > 3.08 h. The half-life [4] was 1.4 h, the half-life [5] was 2 h and the half-life [6] was 1 h. The Vdss [7] was 0.8 L/kg, the Vdss [8] was 1.5 L/kg and the Vdss [9] was 1.5 L/kg. For the same compound, the bioavailability [10] was 80.5%, the bioavailability [11] was 43% and the AUC [12] was 5.5 µM·h. For the same compound, the AUC [13] was 3.7 µM·h, the AUC [14] was 1.1 µM·h and the AUC [15] was 10 µM·h. It also gave an AUC [16] of 14.7 µM·h, an AUC [17] of 2.5 µM·h and an LBF [18] of 12%. For the same compound, the LBF [19] was 25%, the LBF [20] was 58% and the solubility thermodynamic [21] was 81 µM (≈ 47 µg/mL). For the same compound, the solubility thermodynamic [22] was 172 µM (≈ 99.6 µg/mL), the concentration at 1 h [23] was 1.08 µM and the concentration at 1 h [24] was 7.5 µM.
`Cn1cncc1-c1cnn([C@H](CC2CC2)c2ccc(-c3c(-n4cnnn4)ccc(Cl)c3F)c[n+]2[O-])c1` showed a half-life [1] of 0.6 h and a half-life [2] of 1.07 h.
`COC(=O)Nc1ccc(-c2cnn(C(CC3CC3)c3ccc(-c4cc(Cl)ccc4-n4cnnn4)c[n+]3[O-])c2)cc1` (racemic) gave a bioavailability [25] of 37.3%.
Compound `Cn1nccc1-c1cnn(C(CC2CC2)c2ccc(-c3c(-n4cnnn4)ccc(Cl)c3F)c[n+]2[O-])c1` (racemic) has a half-life [1] of 0.267 h and a half-life [2] of 0.45 h.
In the case of `Cn1nncc1-c1cnn([C@H](CC2CC2)c2ccc(-c3c(-n4cnnn4)ccc(Cl)c3F)c[n+]2[O-])c1`, the half-life [1] was > 3 h and the half-life [2] was > 3 h.
With `Cn1nncc1-c1cnn([C@H](Cc2ccc(F)cc2)c2ccc(-c3c(-n4cc(Cl)nn4)ccc(Cl)c3F)c[n+]2[O-])c1` the half-life [1] was 1.47 h and the half-life [2] was 1.28 h.
For `[O-][n+]1cc(-c2c(-n3cnnn3)ccc(Cl)c2F)ccc1C(CC1CC1)n1cc(-c2c(F)cncc2Cl)cn1` (racemic), the half-life [1] was 0.0333 h and the half-life [2] was 0.0333 h.
In the case of `Cn1nncc1-c1cnn([C@H](CCOC(F)F)c2ccc(-c3c(-n4cc(C(F)(F)F)nn4)ccc(Cl)c3F)c[n+]2[O-])c1`, the half-life [1] was > 3.08 h and the half-life [2] was 2.42 h.
With `Nc1ccc(-c2cnn(C(CC3CC3)c3ccc(-c4c(-n5cnnn5)ccc(Cl)c4F)c[n+]3[O-])c2)c(F)n1` (racemic) the half-life [1] was > 3 h and the half-life [2] was > 3 h.
Compound `COC(=O)Nc1ccc(-c2cnn([C@H](CC3CC3)c3ccc(-c4c(-n5cnnn5)ccc(Cl)c4F)c[n+]3[O-])c2)cc1` has a bioavailability [26] of 59.6%.
For `Cn1nncc1-c1cnn([C@H](Cc2ccn(C(F)F)n2)c2ccc(-c3c(-n4cc(C(F)(F)F)nn4)ccc(Cl)c3F)c[n+]2[O-])c1`, the half-life [1] was > 3.08 h and the half-life [2] was 2.33 h.
Compound `COCC[C@H](c1ccc(-c2c(-n3cc(Cl)nn3)ccc(Cl)c2F)c[n+]1[O-])n1cc(-c2cnnn2C)cn1` has a half-life [1] of 0.9 h and a half-life [2] of 0.783 h.
Compound `Cc1ncsc1-c1cnn(C(CC2CC2)c2ccc(-c3c(-n4cnnn4)ccc(Cl)c3F)c[n+]2[O-])c1` (racemic) has a half-life [1] of 0.183 h and a half-life [2] of 0.3 h.
